Read-outs that look alike come from different tables or passages of the source. Each block holds one molecule with its values, some of them ahead of it.
Experiments:
HeLa cells [1] = assay: HeLa Cytotoxicity Assay (Cell Titer Glo viability); format: cell-based
Procedure: HeLa Cytotoxicity Assay Protocol: Day 0: HeLa cells (ATCC, HeLa CCL-2) are grown to 95% confluence in DMEM, 10% FBS/Pen/Strep/L-Glutamine. Day 1: Plate cells (1000 per well) in 40 μl culturing media using Corning 384-well plates (3570), incubate in standard TC conditions (5% CO2, 95% humidity, 37 degrees C.) for 24 hours. Day 2: Dilute each concentration of a half-log serial dilution of compound (1 mM-100 nM) 1:200 in culturing media and add 10 μl (50 μl total volume) of that dilution to designated wells (8 replicates per concentration). The final dilution will be 1000×(1 μM-100 pM). Day 4: Remove plate from incubator to cool for 20 minutes to room temperature. Add 40 μl of a 25% Promega Cell Titer Glo solution (diluted 1:3 with room temperature PBS) with Thermo combi or multichannel and incubate for 10 minutes. Read on Perkin-Elmer EnVision with US LUM settings for 0.1 second per well.
(§1) Compounds as shown were tested against various cells lines in vitro according to the methods described herein. Cells are plated in 384-well format in a total volume of 40 μl. Indicated compound concentrations were added 24 hrs after plating the cells. After 48 hrs cell viability was determined using Cell Titer Glo® Luminescent Cell Viability Assay.
as §1, with “Known PDE3 inhibitors” for “Compounds”, “shown below” for “shown”

H2122 cells = assay: H2122 Assay (Cell Titer Glo viability); format: cell-based; settings: 48 hrs, Cell Titer Glo, read-out: EC50 H2122
Procedure: Selective toxicity in cell line panel. H2122 Assay Protocol Day 0: H2122 cells (ATCC, H2122 CCL-5985) are grown to 95% confluence in RPMI, 10% FBS/Pen/Strep/L-Glutamine. Day 1: Plate cells (750 per well) in 40 μl culturing media using Corning 384-well plates (3570), incubate in standard TC conditions (5% CO2, 95% humidity, 37 degrees C.) for 24 h. Day 2: Dilute each concentration of a half-log serial dilution of compound (1 mM-100 nM) 1:200 in culturing media and add 10 μl (50 μl total volume) of that dilution to designated wells (8 replicates per concentration). The final dilution will be 1000×([…]). Day 4: Remove plate from incubator to cool for 20 minutes to room temperature. Add 40 μl of a 25% Promega Cell Titer Glo solution (diluted 1:3 with room temperature PBS) with Thermo combi or multichannel and incubate for 10 minutes. Read on Perkin-Elmer EnVision with US LUM settings for 0.1 second per well.
as §1

A549 cells = assay: A549 Cytotoxicity Assay (Cell Titer Glo viability); format: cell-based
Procedure: (§2) A549 Cytotoxicity Assay Protocol. Day 0: A549 cells (ATCC, A549 CCL-185) are grown to 95% confluence in RPMI, 10% FBS/Pen/Strep/L-Glutamine. Day 1: Plate cells (1000 per well) in 40 μl culturing media using Corning 384-well plates (3570), incubate in standard TC conditions (5% CO2, 95% humidity, 37° C.) for 24 h. Day 2: Dilute each concentration of a half-log serial dilution of compound (1 mM-100 nM) 1:200 in culturing media and add […] (50 μl total volume) of that dilution to designated wells (8 replicates per concentration). The final dilution will be 1000×([…]). Day 4: Remove plate from incubator to cool for 20 minutes to room temperature. Add 40 μl of a 25% Promega Cell Titer Glo solution (diluted 1:3 with room temperature PBS) with Thermo combi or multichannel and incubate for 10 min. Read on Perkin-Elmer EnVision with US LUM settings for 0.1 second per well.
A549 Assay Protocol. Day 0: A549 cells (ATCC) are grown in a Triple flask (NUNC) to ˜95% confluence (TrypLE Phenol Red free) and resuspended for dispensing at 25,000 cells/mL of DMEM, 10% FBS/Pen/Strep/L-Glutamine (using the TAP Compact SelecT automated cell culture system). Day 1: Plate cells at 1000 per well in 40 uL media (DMEM/10% FBS/Pen/Strep/L-Glutamine) using Corning 8867BC 384 well plates; incubate in standard TC conditions (5% CO2; 95% humidity, 37° C.) for 24 hours (Compact SelecT). Day 2: Add 100 nL compound per well at dose into 40 uL assay volume using a pin tool (CyBi Well). Pin 100 nL cytotoxic compounds, mitoxantrone (CID 4212) to positive control wells to a final concentration of 10 μM (100 nL 4 mM DMSO stock). Incubate for […] at 37° C. in Liconic incubator, 95% humidity 5% CO2. Day 4: Remove plate from incubator, cool for 15 minutes to room temperature; add 20 μL 50% Promega CellTiterGlo (diluted 1:1 with PBS, pH 7.4) with Thermo Combi. Incubate at room temperature for 5 minutes. Read plates on Perkin-Elmer EnVision with standard luminescence settings for 0.1 sec per well.
as §1
as §1, with “Known PDE3 inhibitors” for “Compounds”, “shown below” for “shown”

COLO741 cells = assay: COLO741 Assay (Cell Titer Glo viability); format: cell-based; settings: 48 hrs, Cell Titer Glo, read-out: EC50 COLO741
Procedure: as §2, with “C0L0741” for “A549 Cytotoxicity”, “C0L0741” for “A549”, “(ECACC, C0L0741 93052621)” for “(ATCC, A549 CCL-185)”, “(1500” for “(1000”, “minutes.” for “min.”
as §1

HEL = HEL cell line viability (Cell Titer Glo); format: cell-based
Procedure: as §1

PDE3 = settings: reference value; read-out: PDE3 activity (ref); cited from earlier work
HeLa cells [2] = assay: PARP cleavage assay (immunoblot); format: cell-based
Procedure: The mechanism of cell death was determined after contacting the cells with the compound in Example 1. […] Cells were treated for 24 h with the indicated concentrations of each agent, lysed, and immunoblotted with anti-PARP or anti-actin.

[3] = Homo sapiens, HeLa, 48 h, Cell Titer Glo, read-out: EC50 HeLa
[4] = Homo sapiens, A549, 48 hrs, Cell Titer Glo, read-out: EC50 A549
[5] = Homo sapiens, HeLa, known PDE3 inhibitors, Mean (n = 3), read-out: Potency (EC50 nM) HeLa
[6] = Homo sapiens, A549, known PDE3 inhibitors, Mean (n = 3), read-out: Potency (EC50 nM) A549
[7] = 48 hrs, Cell Titer Glo, read-out: EC50 A549

EC50 (H2122 cells): 3.62 nM
EC50 (COLO741 cells; Homo sapiens, COLO-741, 48 h): 3.97 nM
SMILES: CCN(CC)c1ccc(C2=NNC(=O)C[C@H]2C)cc1[N+](=O)[O-] [drawing 141]
EC50 (HeLa cells [1]; [3]): 2.63 nM
EC50 (A549 cells; [4]): > 10000 nM
EC50 (HEL; Homo sapiens, HEL, 48 h): 13.5 nM

EC50 (COLO741 cells; Homo sapiens, COLO-741, 48 h): 16.5 nM
SMILES: C[C@@H]1CC(=O)NN=C1c1ccc(N2CCOCC2)cc1 [drawing 151]
EC50 (A549 cells; [4]): > 10000 nM
EC50 (HEL; Homo sapiens, HEL, 48 h): 38.7 nM

SMILES: Cc1[nH]c(=O)c(C#N)cc1-c1ccncc1 [Millrinone, reference compound]
EC50 (HeLa cells [1]; [5]): > 10000 nM
IC50 (PDE3): 56 nM
EC50 (A549 cells; [6]): > 10000 nM

EC50 (H2122 cells; Homo sapiens, NCI-H2122, 48 h): 11.8 nM
EC50 (COLO741 cells): 14.5 to 18.9 nM
SMILES: C[C@@H]1CC(=O)NN=C1c1ccc(N2CCOCC2)cc1 [drawing 138]
EC50 (HeLa cells [1]; [3]): 10.3 to 12.1 nM
EC50 (A549 cells; [7]): > 10000 nM
EC50 (HEL; 48 hrs): 25.7 to 58.4 nM

SMILES: CN(C(=O)CCCOc1ccc2[nH]c(=O)ccc2c1)C1CCCCC1 [Cllostamide, reference compound]
EC50 (HeLa cells [1]; [5]): > 10000 nM
IC50 (PDE3): 27 nM
EC50 (A549 cells; [6]): > 10000 nM

SMILES: COc1cc2c(cc1OC)-c1c/c(=N\c3c(C)cc(C)cc3C)n(C)c(=O)n1CC2 [Trequinsin, reference compound]
EC50 (HeLa cells [1]; [5]): > 10000 nM
IC50 (PDE3): 0.25 nM
EC50 (A549 cells; [6]): > 10000 nM

SMILES: CN[C@@H]1C[C@H]2O[C@@](C)([C@@H]1OC)n1c3ccccc3c3c4c(c5c6ccccc6n2c5c31)C(=O)NC4 [staurosporine]
cell death (HeLa cells [2]; Hela cells, 10 μM, 24 h): almost complete cell death

EC50 (H2122 cells; Homo sapiens, NCI-H2122, 48 h): 0.8 nM
EC50 (COLO741 cells; Homo sapiens, COLO-741, 48 h): 0.76 nM
SMILES: CCNc1ccc(C2=NNC(=O)C[C@H]2C)cc1[N+](=O)[O-] [drawing 142]
EC50 (HeLa cells [1]; [3]): 0.461 nM
EC50 (A549 cells; [4]): > 10000 nM
EC50 (HEL; Homo sapiens, HEL, 48 h): 3.98 nM

SMILES: CN/C(=N\c1ccc(C2=NNC(=O)CC2C)cc1)NC#N (stereo not shown) [Siguazodan, reference compound]
EC50 (HeLa cells [1]; [5]): > 10000 nM
IC50 (PDE3): 117 nM
EC50 (A549 cells; [6]): > 10000 nM

SMILES: OO [hydrogen peroxide]
mechanism of cell death (PARP cleavage) (HeLa cells [2]; Hela cells treated for 24 h, anti-PARP immunoblot, FIG. 3): caused necrosis but not apoptosis

EC50 (H2122 cells): 7.4 nM
EC50 (COLO741 cells): 3.6 to 4.4 nM
SMILES: CCN(CC)c1ccc(C2=NNC(=O)C[C@H]2C)cc1[N+](=O)[O-] [drawing 145]
EC50 (HeLa cells [1]; 48 hrs, Cell Titer Glo, read-out: EC50 HeLa): 4.05 nM
EC50 (A549 cells; [7]): > 10000 nM
EC50 (HEL; 48 hrs): 11.3 to 16.2 nM

SMILES: CC(=O)Nc1ccc(C2=NNC(=O)C[C@H]2C)cc1 [OR-1896, reference compound]
EC50 (HeLa cells [1]; [5]): > 10000 nM
IC50 (PDE3): 94 nM
EC50 (A549 cells; known PDE3 inhibitors, Mean (n = 3), read-out: Potency (EC50 nM) A549): > 10000 nM

From patent publication US20180244629A1, “Compounds And Compositions For The Treatment Of Cancer” (The Broad Institute, Inc., priority 2013, published 2018)
